Measurements reported in patent publication US9273043B2, “TRPV1 antagonists including dihydroxy substituent and uses thereof” (Purdue Pharma L.P., priority 2011, dated 2016).
Marks after values point to notes of the source that are not given here.

Tested on: MIA-induced osteoarthritis pain
Assay: MIA-induced osteoarthritis model, weight bearing difference (WBD) test
Assay type: in vivo
Conditions: rat MIA
Excerpt: Osteoarthritis Pain: To assess the actions of a Compound of Formula (I) for the treatment or prevention of osteoarthritis pain, the rat monosodium iodo-acetate (MIA, i.e., sodium 2-iodoacetate) induced osteoarthritis model was used. Intra-articular injection of MIA causes joint degeneration characterized by osteolysis and swelling, with displacement of the patella, and reductions in bone mineral content and bone mineral density (Pomonis et al., “Development and pharmacological characterization of a rat model of osteoarthritis pain,” Pain 114: 339-346 (2005)). Under isoflurane anaesthesia, an intra-articular injection of 2 mg of MIA (Sigma-Aldrich) in 50 μl of saline was administered through the infrapatellar ligament of the knee joint of the right hind leg of the male, 6 week old Crl:CD(SD) rats. Control rats received an intra-articular injection of 50 μl of saline into the knee joint of the right hind leg. The left knee joint of all rats was untreated. […] Thus, in the assessment for osteoarthritis pain relief through gripping capability determinations, the 24 hour time point was the start of the next day when drug-in-vehicle was again orally administered (24 hours after the prior administration) for certain dosages. […] Weight Bearing Difference Test as an Assessment of Osteoarthritis Related Pain: The weight bearing difference test provides an accepted assessment of the efficacy of clinically useful analgesic drugs with respect of osteoarthritis related pain (see Pomonis et al. (2005)). WBD was assessed using a Linton Incapacitance Tester (Linton Instrumentation, Norfolk, UK). Rats were placed on the apparatus so that they were standing on their hind legs, and allowed to acclimate to the apparatus. When stationary, the weight born on each leg was measured over a 3s period. Three readings were taken for each rat at each time point; the average of the three readings was used for data analysis. WBD was expressed as “% WR”, i.e., the percentage of weight born on the MIA-injected right hind leg, using the following formula: [formula] where WR is the weight on the right hind leg and WL is the weight on the left (untreated) hind leg. […] The “% WRR”, i.e., the percentage reversal of the % WR impediment occurring post-MIA injection, was determined for each dosage at each time point using the following formula: [formula] where (% WR)Post-Drug is the % WR determined at each post-oral-administration time-point for each dose of each administered substance, (% WR)Pre-Drug is the % WR determined pre-oral-administration of each administered substance, and (% WR)Control Rat is the % WR determined for control rats (receiving the saline injection into the right hind leg knee joint). With the exception of the controls (i.e., celecoxib, vehicle) where the student's t-test was used, Dunnett's test was conducted for the % WRR.

`CC1CN(c2ncc(C(O)CO)cc2F)CCN1C(=O)Nc1nc2cc(F)ccc2s1.O=C(O)C=CC(=O)O` (stereo not shown) was tested, and the minimal effective dose was 1 mg/kg, the “% WRR [mean]” value (oral 0.3 mg/kg, 1 h after administration) was 4.3% and the “% WRR [mean]” value (oral 0.3 mg/kg, 3 h after administration) was 12.5%. For the same compound, the “% WRR [mean]” value (oral 0.3 mg/kg, 5 h after administration) was 7.1%, the “% WRR [mean]” value (oral 0.3 mg/kg, 7 h after administration) was 5.0% and the “% WRR [mean]” value (oral 0.3 mg/kg, 24 h after administration) was 0%. For the same compound, the “% WRR [mean]” value (oral 1 mg/kg, 1 h after administration) was 15.2%, the “% WRR [mean]” value (oral 1 mg/kg, 3 h after administration) was 28.8** % and the “% WRR [mean]” value (oral 1 mg/kg, 3 h after administration, listed as product prepared with Compound A155(a) and fumaric acid) was 28.8%. The “% WRR [mean]” value (oral 1 mg/kg, 5 h after administration) was 16.1** %, the “% WRR [mean]” value (oral 1 mg/kg, 5 h after administration, listed as product prepared with Compound A155(a) and fumaric acid) was 16.1% and the “% WRR [mean]” value (oral 1 mg/kg, 7 h after administration) was 8.8* %. The “% WRR [mean]” value (oral 1 mg/kg, 7 h after administration, listed as product prepared with Compound A155(a) and fumaric acid) was 8.8%, the “% WRR [mean]” value (oral 1 mg/kg, 24 h after administration) was 2.1% and the “% WRR [mean]” value (oral 3 mg/kg, 1 h after administration) was 20.9** %. The “% WRR [mean]” value (oral 3 mg/kg, 3 h after administration) was 34.5** %, the “% WRR [mean]” value (oral 3 mg/kg, 5 h after administration) was 23.4** % and the “% WRR [mean]” value (oral 3 mg/kg, 7 h after administration) was 9.5* %. The “% WRR [mean]” value (oral 3 mg/kg, 24 h after administration) was 3.7%, the “% WRR [mean]” value (oral 10 mg/kg, 1 h after administration) was 33.3** % and the “% WRR [mean]” value (oral 10 mg/kg, 3 h after administration) was 44.1** %. The “% WRR [mean]” value (oral 10 mg/kg, 5 h after administration) was 35.0** %, the “% WRR [mean]” value (oral 10 mg/kg, 7 h after administration) was 22.8** % and the “% WRR [mean]” value (oral 10 mg/kg, 24 h after administration) was 9.8%. The “% WRR [mean]” value (oral 20 mg/kg, 1 h after administration) was 41.9** %, the “% WRR [mean]” value (oral 20 mg/kg, 1 h after administration, listed as product prepared with Compound A155(a) and fumaric acid) was 41.9% and the “% WRR [mean]” value (oral 20 mg/kg, 3 h after administration) was 56.9** %. For the same compound, the “% WRR [mean]” value (oral 20 mg/kg, 3 h after administration, listed as product prepared with Compound A155(a) and fumaric acid) was 56.9%, the “% WRR [mean]” value (oral 20 mg/kg, 5 h after administration) was 46.9** % and the “% WRR [mean]” value (oral 20 mg/kg, 5 h after administration, listed as product prepared with Compound A155(a) and fumaric acid) was 46.9%. The “% WRR [mean]” value (oral 20 mg/kg, 7 h after administration) was 35.6** %, the “% WRR [mean]” value (oral 20 mg/kg, 7 h after administration, listed as product prepared with Compound A155(a) and fumaric acid) was 35.6% and the “% WRR [mean]” value (oral 20 mg/kg, 24 h after administration) was 19.8** %. For the same compound, the “% WRR [mean]” value (oral 20 mg/kg, 24 h after administration, listed as product prepared with Compound A155(a) and fumaric acid) was 19.8%.
